Assay results published in PMC6027665, “Synthesis and Cytotoxicity Evaluation of Novel Asymmetrical Mono-Carbonyl Analogs of Curcumin (AMACs) against Vero, HeLa, and MCF7 Cell Lines” (Scientia Pharmaceutica, 2018).
≈ marks a conversion by molar mass, not a printed value. Read-outs that look alike come from different tables or passages of the source.

What was measured:
[1] = system: Artemia salina L. larvae; experiment: Brine shrimp lethality test (BSLT); type: in vivo; details: Artemia salina, read-out: BSLT toxicity level
Protocol: (§1) The assay was carried out according to the principle and protocol previously described by Meyer, with slight modification. Artemia salina L. eggs were inserted into a box containing seawater; the box was placed under UV lamp, and after 48 h the eggs hatched into larvae and ready for the test. The compounds (1a–1e, 2a–2e) were diluted in 10 mL seawater containing 10 larvae (1% DMSO (v/v)) until concentrations 20, 200, 500, and 1000 ppm were reached. After 24 h, the live and dead shrimp were counted. The mortality rate (%) was obtained by comparing the number of total dead larvae and the total number of larvae. The experiment was conducted in triplicate. The concentrations (dose)-response (% mortality) data were transformed into a straight line using a logit transformation, and the concentration required to kill 50% of the population (LC50 values) was derived from the best fit line obtained by linear regression analysis.

[2] = Brine shrimp lethality test (BSLT); type: in vivo; details: Artemia salina (brine shrimp) larvae, in vivo, other: compound diluted in the seawater holding the larvae; brine shrimp larvae, 24 h, triplicate
Protocol: as §1

[3] = system: Vero cell lines (ATCC CCL-81); experiment: MTT proliferation assay, Vero cell lines (normal cells); type: cell-based, African green monkey; details: 48 h incubation, mean ± SD (n = 3)
Protocol: (§2) The cytotoxic activity of the synthesized compounds was evaluated against human cervix carcinoma (HeLa, ATCC CCL-2) cell lines, human estrogen-dependent breast carcinoma (MCF7, ATCC HTB-22) cell lines, and kidney of an African green monkey (Vero, ATCC CCL-81) as a normal cell lines using the methyl thiazolyl tetrazolium (MTT) method conducted according to the MTT assay protocol published by the American Type Culture Collection (ATCC). Cisplatin was used as a reference drug. Curcumin was also evaluated as a comparative compound on the tests against Vero and MCF7 cell lines, and doxorubicin was evaluated as an additional comparator on the test against MCF7 cell lines. The assay detects the reduction of yellow tetrazolium (MTT) by metabolically active cells to be purple formazan measured using spectrophotometry.
(§3) The cells lines were seeded into 96-well plates at a density of 5000 cells per well, replenished with growth media consisting of Dulbecco’s Modified Eagle’s medium (D-MEM) for Vero or Roswell Park Memorial Institute (RPMI) 1640 medium for MCF7 and HeLa, 5% Fetal Bovine Serum (FBS), 100 U/mL penicillin, and 100 μg/mL streptomycin. The cells were incubated at 37 °C in 5% CO2 for 24 h. Then, a series concentrations of the tested compounds (1.5, 3.1, 6.2, 12.5, 25.0, 50.0, 100.0, and 200.0 µg/mL) were added to each well of the plate and incubated for 48 h. After that, 10 μL fresh solution of MTT reagent was added to each well, and the plate was incubated in a CO2 incubator at 37 °C for 4 h. After the purple precipitate was obtained, the cells were dissolved in ethanol and their optical density was recorded at 595 nm. The experiment was performed in triplicate. Percent proliferation inhibition was calculated using the following formula: Viability cells inhibition (%)=100−[(At−Ab)/(Ac−Ab)] ×100%
(§4) At = absorption of test compound, Ab = absorption of blank, Ac = absorption of control.
(§5) The concentration of the synthesized compounds required to inhibit 50% of the growth of the cell lines (IC50 values) was calculated by analyzing the relationship between concentrations and percent (%) inhibitions using GraphPad Prism 7 version 7.00 for Windows, GraphPad Software, La Jolla, CA, USA, www.graphpad.com.

[4] = system: HeLa cell lines (human cervix carcinoma, ATCC CCL-2); experiment: MTT proliferation assay, HeLa cell lines; type: cell-based; details: 48 h incubation, mean ± SD (n = 3)
Protocol: as §2, §3, §4, §5

[5] = system: MCF7 cell lines (human estrogen-dependent breast carcinoma, ATCC HTB-22); experiment: MTT proliferation assay, MCF7 cell lines; type: cell-based
Protocol: as §2, §3, §4, §5

[6] = system: HeLa cell lines (human cervix carcinoma, ATCC CCL-2); set-up: method as in doi:10.1016/j.toxlet.2016.06.1915; details: value of an earlier study; cited from earlier work
[7] = Homo sapiens, MCF7, 48 h incubation, mean ± SD (n = 3), read-out: IC50 (µM) MCF7

Compound	LC50 [1] [µg/mL]	LC50 at 24 h [2] [µM]	IC50 ([3]; Chlorocebus sabaeus, Vero) [µM]	IC50 ([4]; Homo sapiens) [µM]	IC50 [5, 7] [µM]	IC50 [3] [µM]	IC50 [4] [µM]	IC50 ([5]; 48 h incubation, mean ± SD (n = 3), read-out: IC50 (µM) MCF7) [µM]	IC50 [6] [µM]	IC50 ([5]; Homo sapiens, MCF7, same value in µg/mL, read-out: IC50 MCF7) [µg/mL]
CCN(CC)Cc1cc(/C=C2\CCC/C(=C\c3ccc(F)cc3)C2=O)cc(OC)c1O [Compound 2c, (2E,6E)-2-({3-[(diethylamino)methyl]-4-hydroxy-5-methoxyphenyl}methylidene)-6-[(4-fluorophenyl)methylidene]cyclohexan-1-one]	30 to 100 (≈ 70.8 to 236 µM)	88.4	4.23 ± 0.32	41.1 ± 0.16	–	–	–	–	–	–
COc1cc(/C=C2\CCC/C(=C\c3ccccc3)C2=O)ccc1O [Compound 1a, (2E,6E)-2-[(4-hydroxy-3-methoxyphenyl)methylidene]-6-(phenylmethylidene)cyclohexan-1-one]	30 to 100 (≈ 93.6 to 312 µM)	197	13.98 ± 0.04	> 100	> 100	–	–	–	–	–
COc1cc(/C=C2\CCC/C(=C\c3ccc(F)cc3)C2=O)ccc1O [Compound 1c, (2E,6E)-2-[(4-hydroxy-3-methoxyphenyl)methylidene]-6-[(4-fluorophenyl)methylidene] cyclohexan-1-one]	30 to 100 (≈ 88.7 to 296 µM)	177	13.4 ± 0.39	49.1 ± 1.17	10.9 ± 0.79	–	–	–	–	–
CCN(CC)Cc1cc(/C=C2\CCC/C(=C\c3ccc(OC)cc3)C2=O)cc(OC)c1O [Compound 2b, (2E,6E)-2-({3-[(diethylamino)methyl]-4-hydroxy-5-methoxyphenyl}methylidene)-6-[(4-methoxyphenyl)methylidene]cyclohexan-1-one]	30 to 100 (≈ 68.9 to 230 µM)	80.2	7.29 ± 0.12	69.3 ± 3.17	–	–	–	–	–	–
COc1cc(/C=C/C(=O)CC(=O)/C=C/c2ccc(O)c(OC)c2)ccc1O [Curcumin]	–	–	31.4 ± 0.41	–	10.5 ± 1.1	–	–	–	–	–
N.N.[Cl][Pt][Cl] [Cisplatin, reference compound]	–	–	–	–	–	84.7 ± 2.09	67.6 ± 2.04	12.8 ± 1.35	12.3	–
CCN(CC)Cc1cc(/C=C2\CCC/C(=C\c3ccccc3)C2=O)cc(OC)c1O [Compound 2a, (2E,6E)-2-({3-[(diethylamino)methyl]-4-hydroxy-5-methoxyphenyl}methylidene)-6-(phenylmethylidene)cyclohexan-1-one]	100 to 1000 (≈ 247 to 2470 µM)	921	4.14 ± 0.21	46.6 ± 1.54	–	–	–	–	–	–
CCN(CC)Cc1cc(/C=C2\CCC/C(=C\c3ccc(C)cc3)C2=O)cc(OC)c1O [Compound 2e, (2E,6E)-2-({3-[(diethylamino)methyl]-4-hydroxy-5-methoxyphenyl}methylidene)-6-[(4-methylphenyl)methylidene]cyclohexan-1-one]	100 to 1000 (≈ 238 to 2380 µM)	1700	15.02 ± 0.14	76.6 ± 4.27	14.6 ± 1.96	–	–	–	–	–
COc1cccc2c1C(=O)c1c(O)c3c(c(O)c1C2=O)C[C@@](O)(C(=O)CO)C[C@@H]3O[C@H]1C[C@H](N)[C@H](O)[C@H](C)O1 [Doxorubicin, reference compound]	–	–	–	–	< 2.94	–	–	–	–	–
COc1cc(/C=C2\CCC/C(=C\c3ccc(Cl)cc3)C2=O)ccc1O [Compound 1d, (2E,6E)-2-[(4-hydroxy-3-methoxyphenyl)methylidene]-6-[(4-chlorophenyl)methylidene] cyclohexan-1-one]	30 to 100 (≈ 84.5 to 282 µM)	204	14.1 ± 0.18	55.6 ± 1.49	35.9 ± 4.57	–	–	–	–	–
COc1cc(/C=C2\CCC/C(=C\c3ccc(C)cc3)C2=O)ccc1O [Compound 1e, (2E,6E)-2-[(4-hydroxy-3-methoxyphenyl)methylidene]-6-[(4-methylphenyl)methylidene] cyclohexan-1-one]	< 30	78.7	16.1 ± 0.18	61.2 ± 2.86	10.4 ± 0.36	–	–	–	–	–
CCN(CC)Cc1cc(/C=C2\CCC/C(=C\c3ccc(Cl)cc3)C2=O)cc(OC)c1O [Compound 2d, (2E,6E)-2-({3-[(diethylamino)methyl]-4-hydroxy-5-methoxyphenyl}methylidene)-6-[(4-chlorophenyl)methylidene]cyclohexan-1-one]	< 30	29.8	3.94 ± 0.07	40.6 ± 0.98	–	–	–	–	–	–
COc1ccc(/C=C2\CCC/C(=C\c3ccc(O)c(OC)c3)C2=O)cc1 [Compound 1b, (2E,6E)-2-[(4-hydroxy-3-methoxyphenyl)methylidene]-6-[(4-methoxyphenyl)methylidene] cyclohexan-1-one]	100 to 1000 (≈ 285 to 2850 µM)	323	15.4 ± 0.34	95.5 ± 7.19	7.86 ± 1.05	–	–	–	–	2.75
